One series concerns Lp-PLA2. As to the kind of experiment: Study DG-031-201: Lp-PLA2. The series is classed as in vivo, human. Particulars: 2 lower doses (250 mg/day and 500 mg/day). On the procedure: (§1) Genet. 2004). Apart from FLAP, allele A of the SNP SG12S25 in the LTA4 hydrolase gene, another gene in the LT pathway, is also associated with MI, as described in PCT application no. PCT/US03/32556 and PCT/US04/30582 incorporated by reference.
(§2) Patients who met the study eligibility criteria were enrolled and randomized into 3 different dose-level groups: (1) 64 patients on 250 mg/day therapy with DG-031 (250 mg q.d.), vs placebo; (2) 64 patients on 500 mg/day therapy with DG-031 (250 mg b.i.d.) vs placebo; and (3) 63 patients on 750 mg/day therapy with DG-031 (250 mg t.i.d.) vs placebo. […] All patients received 3 tablets per day. Treatment periods, 4 weeks in duration each, were separated by a 2-week washout period. The placebo tablets were identical in shape, color, form and taste to the active tablets except that they contained no active drug ingredients. Treatment with DG-031 or placebo was in addition to the subject's standard care, including all medications and treatment plan as prescribed by the subject's cardiologist prior to enrolment. […]
(§3) All data were analyzed according to a pre-established statistical analysis plan (SAP) and by intention-to-treat (ITT). […] The difference between DG-031 and placebo treatment was the primary outcome, assessed separately for each of the biomarkers. […]

The next series deals with CRP. As to the kind of experiment: Study DG-031-201: Hs-CRP in serum. The series is classed as in vivo, human. The note with it: for CRP, change: Study 201, 2-6 wks. How it is done: as §1
Patients who met the study eligibility criteria were enrolled and randomized into 3 different dose-level groups: (1) 64 patients on 250 mg/day therapy with DG-031 (250 mg q.d.), vs placebo; (2) 64 patients on 500 mg/day therapy with DG-031 (250 mg b.i.d.) vs placebo; and (3) 63 patients on 750 mg/day therapy with DG-031 (250 mg t.i.d.) vs placebo. […] All patients received 3 tablets per day. Treatment periods, 4 weeks in duration each, were separated by a 2-week washout period. The placebo tablets were identical in shape, color, form and taste to the active tablets except that they contained no active drug ingredients. Treatment with DG-031 or placebo was in addition to the subject's standard care, including all medications and treatment plan as prescribed by the subject's cardiologist prior to enrolment. A total of 191 subjects were enrolled, with 172 completing all 8 visits or 8 patients short of the target of 180 patients.
The primary objective was to determine whether the FLAP inhibitor has a statistically significant effect, compared to placebo, on one or more biomarkers of MI risk, including: (1) ionomycin-induced LTB4 and MPO release by neutrophils ex vivo; (2) MPO, CRP, N-tyrosine, Lp-PLA2 or amyloid A in serum, or (3) LTE4 in urine. The secondary objective was to determine whether the effect of DG-031 was dose-dependent. The tertiary objective was to assess other biomarkers (See Results). Evaluation of safety and tolerability of the drug was also a primary endpoint.
All data were analyzed according to a pre-established statistical analysis plan (SAP) and by intention-to-treat (ITT). Each arm of the study, as well as pooled sets (combining dose levels), was considered for the primary analysis. Each such set is an AB/BA cross-over design and in the primary analysis of efficacy, the levels of biomarkers of MI risk at the end of the treatment periods (visits 4 and 7) were used as primary response variables. The difference between DG-031 and placebo treatment was the primary outcome, assessed separately for each of the biomarkers. Treatment effect was tested using a two-sample t-test on the period differences for suitably transformed response variables, under an assumption of normality of the transformed data. We report treatment effect as one half of the observed mean differences in the two-sample t-test, with a 95% CI. No pre-tests for carry-over effect were performed as a part of the primary analysis. Tests for carry-over were done and are reported separately from results of primary analysis. All hypotheses were tested at a two-sided nominal significance level of 0.05 and p-values based on t-tests are reported. In addition, for the primary efficacy endpoints where the effects of the two highest doses on 10 primary variables were studied, a randomization test was performed which corrects for multiple testing and ensures that the key results are not affected by distributional concerns. In particular, 1 million permutations of the patients into the different study tracks were performed, generating a reference distribution for the maximum of the 10 t-statistics of the biomarkers under the null hypothesis of no drug effect. By comparing the observed t-statistic of each of the 10 biomarkers to this reference distribution, empirical p-values were computed. As was stated in the SAP prior to unblinding, it was considered likely that experimental manipulations would alter the effect of the drug on two of the primary markers; this was indeed the case and we are only reporting directly on 8 of the 10 primary markers but all 10 are included in the randomization test. […]

Series [1] can be described thus: Effect of high fat meal on DG-031 pharmacokinetics. The series is classed as in vivo, human. The note with it: administration with a high fat meal. How it is done:
In the context of treatment of a single individual, a steady state concentration may be expected to fluctuate from day-to-day with variations in the individual's diet, level activity, state of health, co-administration of other medications, and the like. DG-031 is preferably administered with food to improve adsorption. […] Alternatively, DG-031 is administered in the absence of food. The decision whether or not to administer with food may be based on the Cmax and Cmin observed following administration of a novel formulation where the Cmax and Cmin fall within the desired range. […] In this context, the steady state concentration for an individual refers to an average concentration taken at multiple time points, to adjust for such fluctuation.

The next series concerns CD40L. As to the kind of experiment: Study DG-031-204: CD40L. The series is classed as in vivo, human. The note with it: after 4 weeks. On the procedure:
An additional single site, open label study was carried out to obtain biomarker and safety data on additional DG-031 doses (i.e., 1000 mg and 1500 mg). This study examined the safety, tolerability and dose-related effects of DG-031 on inflammatory biomarkers including: LTB4, hsCRP, and MPO. A total of 119 patients with a prior history of CAD and MI were randomized to receive either 1000 mg DG-031 (500 mg BID) or 1500 mg DG-031 (500 mg TID) daily for 4-6 weeks. Treatment with DG-031 in addition to the subject's standard care, medication, and treatment, was prescribed by the patient's cardiologist. A majority of the subjects received statin therapy before, during and after the study. Follow-up assessments were performed 2 weeks after the end of study drug administration.
The biomarkers were analyzed as described in Example 1. Statistical analysis of the data was carried out using a one-sample t-test on change from baseline with a two-sided nominal significance level of 0.050. Biomarker concentrations were log-transformed and a simple last observation carried forward (LOCF) scheme was used to impute missing observations.
CD40L was measured at 2-week intervals. […] After 4 weeks, there was a 22% (p<0.001; n=55) reduction in CD40L in the 500 mg BID group and a 21% (p<0.001; n=57) reduction in the 500 mg TID group. CD40L levels remained suppressed at the 2 week follow up visit.

In the next series the test system is MPO. As to the kind of experiment: Study DG-031-201: ionomycin-induced MPO release in whole blood ex vivo. On the set-up: species or system human. The note with it: difference visit 2 to 5; 500 and 750 mg/day vs placebo. On the procedure:
as §1, §2, §3

The values below come from patent US20090030037A1, “Sustained Release Formulation and Dosing Schedules of Leukotriene Synthesis Inhibitor for Human Therapy” (deCODE Genetics ehf., priority 2005, published 2009).

For `O=C(O)[C@@H](c1ccc(OCc2ccc3ccccc3n2)cc1)C1CCCC1` [DG-031, (R)-(+)-alpha-cyclopentyl-4-(2-quinolinylmethoxy)-Benzeneacetic acid], in the series with Lp-PLA2, the “Effects on Lp-PLA2” value is listed as “not significant”. Further, in the series with CRP (250 mg BID and TID, end of wash-out period (week 6)), the “Reduction in CRP” value is 25%. The “CRP, change” value in the series on CRP (250 mg BID) is on record as −24%; with CRP (250 mg QD) it was −6%; with CRP (250 mg TID) it was −13% (St. 201). Besides, the “Carry-over effect, CRP” value in the series on CRP (difference visit 2 to 5, 500 and 750 mg/day vs placebo) is −0.28. In addition, the “Reduction of serum CRP” value in the series on CRP (higher two dose groups (250 mg BID and 250 mg TID), at 2 weeks, p=0.07) turned out to be 16%. Further, the half-life result in series [1] is listed as “shorter”. Moreover, the entries for the “Reduction in CD40L” value with CD40L (500 mg BID) and in the series on CD40L (500 mg TID) were 22% and 21%, respectively. For the same compound, the “Carry-over effect, MPO in whole blood, corr. for wbc” value in the series on MPO worked out at 0.01.
